From patent publication EP4790046A1, “NOVEL COMPOUND DERIVED FROM MYRISTICA FRAGRANS, AND ANTICANCER COMPOSITION COMPRISING SAME” (Korea Institute of Science and Technology, priority 2023, dated 2025)

Tests used:
SNU466 = test: alamarBlue cell viability (survival rate), SNU466; type: cell-based; conditions: SNU466 (glioblastoma), compound 10 µM, 48 hours
Excerpt: (§1) A p-value < 0.05 was considered statistically significant.

SNU201 = test: alamarBlue cell viability (survival rate), SNU201; type: cell-based; conditions: SNU201 (glioblastoma), compound 10 µM, 48 hours
Excerpt: as §1

caspase-3 and -7 = test: Caspase-3/7 activity assay (Caspase-Glo 3/7), 23132/87 cells; type: cell-based; conditions: for Caspase-3/7 activity: RLU relative to DMSO; for caspase-3/7 RLU increase over DMSO: 23132/87
Protocol: Apoptosis can be activated and progress through either the intrinsic or extrinsic pathway, but caspase-3, the executioner caspase, is involved in most cases. […] Since this enzyme activity is transient, analysis was performed at two time points: 6 hours and 12 hours post-treatment.
Specifically, the Caspase-3/7 activity assay was performed with slight modifications to the manufacturer's protocol (Promega, USA). Briefly, cells were seeded at a density of 5 × 10^3 cells/well in a 96-well plate, cultured for 24 hours, and then treated with the compound at an appropriate concentration for 6 or 12 hours. After treatment, Caspase-Glo 3/7 reagent was added in equal volumes to the treated samples. The plate was then shaken and incubated at room temperature for 2 hours. Enzyme activity was determined by measuring relative light units (RLU) using a Varioskan LUX Multimode Microplate Reader (Thermo Fisher Scientific, USA).

[1] = tested on: various cancer cell lines; test: alamarBlue cell viability, statements across the cell line panel
Protocol: AGS, SW48, HepG2, and MiaPaCa-2 was purchased from ATCC (American Type Culture Collection, USA), SNU cell lines from the Korean Cell Line Bank (KCLB, Korea), and 23132/87 from the Leibniz Institute DSMZ - German Collection of Microorganisms and Cell Cultures GmbH (DSMZ, Germany). All cell lines were cultured in RPMI-1640 medium (HyClone, USA) supplemented with 10% FBS (Gibco, USA) and 1% penicillin-streptomycin (HyClone, USA) under conditions of 5% CO2, 37°C.
Cells were seeded at a density of 5 × 10^3cells/well in a 96-well plate for 24 hours, then treated with the compound at an appropriate concentration (10 µM) for 48 hours. After treatment, alamarBlue reagent was added at a volume ratio of 1/10 of the treatment volume and incubated for 4 hours in a 37°C cell incubator (protected from direct light). Cell viability was then determined by measuring absorbance values at 570 nm and 600 nm using a microplate reader. The anticancer effects of candidate compounds were evaluated by assessing the cell viability (%) of cells treated at specific concentrations and the half-maximal inhibitory concentration (IC50) of each natural product. Doxorubicin and oxaliplatin were used as positive controls for gastric and colorectal cancer, respectively.
Statistical analysis was performed using R software (version 4.2.2) (R Core Team). Differences between groups were assessed using student's t-test or 1-way ANOVA followed by post-hoc Tukey HSD test. A p-value < 0.05 was considered statistically significant.
Further, to measure the IC50 values against six cancer cell lines.

SW48 cell line = test: Cell cycle distribution (PI/RNase staining, flow cytometry), SW48; type: cell-based
Protocol: Cell cycle distribution was analyzed by DNA staining using FxCycle PI/RNase Staining Solution (Invitrogen, USA). The 23132/87 and SW48 cell lines was seeded at densities of 5 × 10^5 and 7 × 10^5cells/well, respectively, in 6-well plates. After 24 hours of culture, cells were starved overnight in serum-free medium. […] Cells were then harvested, fixed with 70% ethanol, and stained with PI/RNase solution. Samples were analyzed by flow cytometry (BD FACSVerse Cell Analyzer and FlowJo software, BD Biosciences, Franklin Lakes, NJ, USA) based on 10,000 events.
Student's t-test was performed for statistical analysis between the 2 concentrations of the same compound.

## C=CCc1cc(OC)c(O[C@H](C)[C@H](c2ccc(O)c(OC)c2)c2ccc(O)c(C(=O)CCCCCCCCc3ccc(O)cc3)c2O)c(OC)c1 [Compound 3, Myricone C]
SNU466
  Cancer cell line survival rate (%): 1.91%
SNU201
  Cancer cell line survival rate (%): 1.17%
caspase-3 and -7; 23132/87, 5 µM, 6 h
  Caspase-3/7 activity: 0.58 fold
caspase-3 and -7; 23132/87, 5 µM, 12 h
  Caspase-3/7 activity: 1.74 fold
caspase-3 and -7; 23132/87, 10 µM, 6 h
  Caspase-3/7 activity: 1.81 fold
caspase-3 and -7; 23132/87, 10 µM, 12 h
  Caspase-3/7 activity: 1.20 fold
caspase-3 and -7; 5 µM, 12 hours
  caspase-3/7 RLU increase over DMSO: 1.74 fold
caspase-3 and -7; 10 µM, 6 hours
  caspase-3/7 RLU increase over DMSO: 1.81 fold
[1]; six cancer cell lines, 2.5-40 µM
  anticancer activity (comparison of IC50 values among compounds): strongest anticancer activity
[1]; various cancer cell lines
  anticancer activity: high anticancer activity
SW48 cell line; SW48, 5 µM, 48 hours
  Cell cycle distribution, G1: 56.63%
  Cell cycle distribution, G2/M: 8.91%
  Cell cycle distribution, S: 23.00%
  Cell cycle distribution, Sub G1: 9.65%
SW48 cell line; SW48, 10 µM, 48 hours
  Cell cycle distribution, G1: 50.93%
  Cell cycle distribution, G2/M: 6.13%
  Cell cycle distribution, S: 19.30%
  Cell cycle distribution, Sub G1: 24.17%
  sub-G1 proportion increase compared to the DMSO control: 7%
SW48 cell line; SW48, 5 µM
  G2 phase: 8.91% ± 0.24%
  sub-G1 phase ratio: 9.65% ± 1.02%
SW48 cell line; SW48, 10 µM
  G2 phase: 6.13% ± 0.47%
  sub-G1 phase ratio: 24.17% ± 0.98%
SW48 cell line; SW48, 10 µM, 48 hours, only G2/M decrease statistically significant
  proportions of the G1, S, and G2/M phases: slightly reduced
